Data taken from patent US20230181493A1, “BIOMARKERS RELATED TO PARKINSON'S DISEASE AND METHODS OF USING THE SAME” (SENDA BIOSCIENCES, INC., priority 2020, published 2023).

Legend:
[1] = carbidopa administered with levodopa; cited from earlier work
[2] = test system: microbial enzyme TDC in the rat microbiome; assay: In vivo metabolism of levodopa: levodopa in circulation after inhibition of microbial TDC; conditions: oral gavage, whole blood, LC-MS/MS
From the text: The microbial enzyme TDC in the rat microbiome was inhibited with alpha-fluoromethyltyrosine (AFMT). On day 0, male Sprague Dawley rats were prophylactically treated with single oral gavage of vehicle, carbidopa, carbidopa+S-AFMT, or carbidopa+R-AFMT, respectively. On day 1, solutions of levodopa, carbidopa, S-AFMT in 1% methyl cellulose (w/v), and 1% ascorbic acid (w/w) in deionized (DI) water were applied by oral gavage to male Sprague Dawley rats.
Whole blood samples were drawn and levodopa concentrations were determined by LC-MS/MS at 0, 5, 10, 15, 30, 45, 90, and 180 min post-application (12 animals per time point).

[3] = biological target: T1, Tyrosine decarboxylase (tdc) (Enterococcus faecalis, UniProt P0DTQ4); assay: Inhibition of tyrosine decarboxylase in vitro; assay type: biochemical; conditions: 60 min preincubation of tdc with inhibitor at room temperature; dopamine formed from levodopa, LC-MS
T1 construct: made in house
T1 sequence (P0DTQ4 1-620): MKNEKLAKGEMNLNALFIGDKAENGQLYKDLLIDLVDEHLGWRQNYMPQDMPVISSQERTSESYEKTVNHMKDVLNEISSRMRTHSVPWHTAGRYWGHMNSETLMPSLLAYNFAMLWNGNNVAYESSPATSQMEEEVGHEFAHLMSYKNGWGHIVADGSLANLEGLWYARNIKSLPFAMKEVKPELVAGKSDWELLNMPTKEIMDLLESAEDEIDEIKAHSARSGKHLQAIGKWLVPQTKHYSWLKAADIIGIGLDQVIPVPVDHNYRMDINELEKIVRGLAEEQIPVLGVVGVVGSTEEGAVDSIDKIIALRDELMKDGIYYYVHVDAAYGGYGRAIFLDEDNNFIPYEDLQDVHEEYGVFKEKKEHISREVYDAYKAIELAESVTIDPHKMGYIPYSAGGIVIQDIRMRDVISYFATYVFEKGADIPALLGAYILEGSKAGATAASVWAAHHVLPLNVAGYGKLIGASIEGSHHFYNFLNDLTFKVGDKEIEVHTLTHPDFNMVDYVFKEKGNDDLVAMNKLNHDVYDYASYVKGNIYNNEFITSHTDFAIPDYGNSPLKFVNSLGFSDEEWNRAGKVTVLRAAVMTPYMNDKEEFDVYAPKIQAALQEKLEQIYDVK
Procedure: Tyrosine decarboxylase (tdc) was obtained by following a previously published literature procedure (Rekdal et al., Science 2019; 364(6445):eaau6323). The tdc (220 nM final concentration) was thawed on ice and then mixed with pyridoxal-5-phosphate (2.2 mM final concentration) in 200 mM sodium acetate buffer, pH 5.5 optionally containing 1 mM TCEP. To this mixture was added inhibitor at a final concentration of 1000, 333, 111, 37, 12, 4.1, 1.4, or 0 μM (final volume: 100 μL; inhibitor was 100-fold concentrated in a solution of DMSO, H2O, or DMSO:H2O (1/1 v/v)). The protein-inhibitor mixture was incubated at room temperature for 60 min. 6 μL of this mixture was then withdrawn from each solution and mixed with 54 μL of 10 mM levodopa in 200 mM sodium acetate buffer pH 5.5. The final concentration of the reaction was 22 nM tdc, 220 μM pyridoxal-5-phosphate, 9 mM levodopa in 200 mM sodium acetate buffer pH 5.5 with 0-100 μM inhibitor. The reaction proceeded for 5 min at room temperature before being quenched by the addition of 540 μL acetonitrile containing 0.1% (v/v) formic acid supplemented with 200 nM tolbutamide as an internal standard. The reactions were centrifuged (3,000 g, 10 min), and then 100 μL of each supernatant was transferred to a fresh plate. 100 μL of acetonitrile containing 0.1% (v/v) formic acid supplemented with 200 nM tolbutamide was added. An external standard curve containing 0-150 μM dopamine was prepared in the exact same manner.
Dopamine formed in each reaction was quantified by using an Agilent 6470 triple quadrupole mass spectrometer equipped with an Acquity UPLC. Mobile phase A consisted of H2O containing 10 mM ammonium formate, pH 3.0 and supplemented with 0.1% (v/v) formic acid. Mobile phase B consisted of acetonitrile containing 10 mM ammonium formate, pH 3.0 and supplemented with 0.1% (v/v) formic acid. 5 μL of each sample was injected onto a BEH Amide column (Waters Corporation, 2.1×50 mm, 1.7 μm). The gradient was set to: 100% mobile phase B at 0 min, decreasing linearly to 65% mobile phase B by 1.5 min, held constant at 65% mobile phase B until 2.5 min, ramped back up to 100% mobile phase B by 2.6 min, and held constant at 100% mobile phase B until 4.2 min. The flow rate was 0.6 mL/min. The dopamine was detected by using the mass spectrometer in multiple reaction monitoring (MRM) mode, quantifying the transition 154.1 to 137.0 m/z in positive mode. The fragmentor setting was 74, the collision energy was 9, and the cell accelerator voltage was 4, and the dwell time was 20. Tolbutamide was monitored using MRM and quantifying the transition of 271.1 to 91.0 m/z in positive mode. The fragmentor setting was 88, the collision energy was 37, and the cell accelerator voltage was 4, and the dwell time was 20.
The amount of dopamine was quantified by normalizing the area to the area of tolbutamide internal standard within each sample. This relative response was then compared to that of the standard curve to obtain the dopamine formed within each sample. The concentration of dopamine formed as a function of the inhibitor concentration at the preincubation stage was plotted in GraphPad Prism 8, and the IC50 was calculated using the non-linear fit for the standard IC50 curve equation “[inhibitor] vs response (three parameters).”

[4] = test system: E. faecalis v583; assay: Inhibition of Enterococcus faecalis decarboxylation activity in vitro; assay type: cell-based; conditions: levodopa remaining in E. faecalis v583 culture, BHI broth pH 5, 1.5 mM levodopa, 24 h at 37° C., anaerobic, read-out: IC50 @ 60 min
Procedure: A vial of 200 μL of E. faecalis v583 was removed from a −80° C. freezer and thawed in an anaerobic chamber containing an atmosphere of either 95/5 N2/H2 (v/v) or 90/5/5 N2/H2/CO2 (v/v). 200 μL was inoculated into 10 mL of sterile, anaerobic BHI broth, pH 5 (adjusted with NaOH). The culture was grown overnight at 37° C. under anaerobic conditions.
After overnight incubation, 40 μL of the saturated starter culture was mixed with 744 μL of sterile, anaerobic BHI broth, pH 5 that had been supplemented with 1.5 mM levodopa. To this was added 16 μL of a 50-fold concentrated stock solution of inhibitor that had been dissolved in either DMSO, H2O, or DMSO:H2O (1:1 v/v). The final concentration of the inhibitor in each condition was 0, 0.001, 0.01, 0.1, 1, 10, or 100 μM. The contents of each incubation were mixed, and then 100 μL was transferred into a fresh 96-well plate. […]
The samples were analyzed by using an Agilent 6470 triple quadrupole mass spectrometer equipped with an Acquity UPLC. […] The levodopa was detected by using the mass spectrometer in multiple reaction monitoring (MRM) mode, quantifying the transition 198.1 to 151.9 m/z in positive mode. […] Tolbutamide was monitored using MRM and quantifying the transition of 271.1 to 91.0 m/z in positive mode. […]
The amount of levodopa was quantified by normalizing the area to the area of tolbutamide internal standard within each sample. […]

[5] = test system: hepatocytes
Procedure: In a 50 mL falcon tube, 40 mL of Gibco hepatocyte thawing medium was added. The remaining 10 mL of medium was used to gently transfer hepatocytes into a falcon tube using a wide-mouth pipette. The mixture was centrifuged briefly at low speed (100 g for 30 sec) to gather cells at the base of the tube. The supernatant was removed from the tube then bleached and the liquid discarded, leaving behind the cell pellet in the tube. About 4 mL of Gibco Williams E phenol-free medium was added to the tube to get a final count of 1 mil/mL, tilting gently by hand to scatter the cell pellet. […] Count was repeated twice and averaged to calculate the concentration in solution. Count of 1.2 mil/mL was found, and another 800 μL of incubation medium was added to the tube to bring the count to 1 mil/mL. Four wells of a 24 well plate were plated with 1 mL per well, and the plate was gently agitated to distribute a uniform number of cells per well. The plate was pre-incubated for about 10 min at 37° C. […] The plates were agitated to distribute compounds, then 200 μL aliquots were taken from each well and treated with an equal volume of ice-cold acetonitrile to quench catalysis and monitor progress. The quenching and sampling procedure was repeated at 4 h for 4-h samples. The quenched samples were centrifuged at 4000 g for 10 min at 4° C. and the supernatants were saved for analysis.

CC(Cc1ccc(O)c(O)c1)(NN)C(=O)O (single isomer, unassigned; (-)) [carbidopa, (−)-L-α-hydrazino-α-methyl-β-(3,4-dihydroxybenzene) propanoic acid monohydrate]
reduction of the amount of levodopa required to produce a given response [1]: about 75%

N[C@@](CF)(Cc1ccc(O)cc1)C(=O)O [AFMT, alpha-fluoromethyltyrosine]
levels of levodopa at the earliest timepoint assessed [2]: elevated levels of levodopa at the earliest timepoint assessed

NC(Cc1ccc(O)cc1)(C(=O)O)C(F)F (stereo not shown) [Compound K, 2-amino-3,3-difluoro-2-(4-hydroxybenzyl)propanoic acid]
IC50 @ 60 min [3]: Minor inhibition

NC(CF)(Cc1cccc(O)c1)C(=O)O (stereo not shown) [Compound R, 2-amino-3-fluoro-2-(3-hydroxybenzyl)propanoic acid]
IC50 @ 60 min [3]: Minor inhibition

COc1ccc(CCC(N)(CF)C(=O)O)cc1 (stereo not shown) [Compound U, 2-amino-2-(fluoromethyl)-4-(4-methoxyphenyl)butanoic acid]
IC50 [3]: > 1000 µM

N[C@@](CF)(Cc1ccc(O)cc1)C(=O)O [S, (S)-2-amino-3-fluoro-2-(4-hydroxybenzyl)propanoic acid]
IC50 [4]: 2 µM
IC50 [3]: 4 µM

N[C@](CF)(Cc1ccc(O)cc1)C(=O)O [T, (R)-2-amino-3-fluoro-2-(4-hydroxybenzyl)propanoic acid]
IC50 [4]: 18.5 µM
IC50 [3]: 82.3 µM

NCCc1cccc(O)c1 [meta-tyramine]
metabolites produced by hepatocytes [5]: metabolic derivatives of meta-tyramine (e.g., 3-hydroxyphenylacetic acid and meta-tyramine-O-sulfate) were produced
